Experimental data as given in doi:10.1101/496141v1 (bioRxiv, 2018).

How the values were obtained:
Assay type in all cases: in vivo, mouse
Hdh^Q111/+ knock-in mice = experiment: Hdh Q111/+ knock-in mice: striatal caspase-3 and pERK; conditions: 20 mg/kg i.p. for 8 days; twice a day, 7 days; vs SCR
[1] = tested on: ERK phosphorylation (pERK); experiment: pERK positive cells in dorsal striatum after i.p. RB5; conditions: single dose 20 mg/kg i.p., n=5 mice/group, vs SCR at 1h
Tg2576 mice = experiment: Contextual fear conditioning in Tg2576 mice; conditions: 7 months old mice, 20 mg/kg i.p. 1h before training; vs Tg2576 SCR

GRKKRRQRRRPPQGGGGGEPRRTEGVGPGVPGEVEMVKGQPFDV [RB5]
caspase-3 levels in striatum of Hdh^Q111/+ mice (Hdh^Q111/+ knock-in mice): diminished caspase-3 levels
duration of enhancement of ERK phosphorylation in dorsal striatum [1]: up to 6 h
contextual fear memory impairment in Tg2576 mice (% of time spent freezing, 24h) (Tg2576 mice): fully rescued
